Where two headings read alike, the source gives them in different places.

Assay type in all cases: cell-based
Common to all, as to settings: pH 3, Mueller Hinton Broth, 18 to 24 hours

The test system of experiment [1] is Candida albicans (22972). In words: MIC, broth microdilution, Candida albicans (22972). The method, then: (§1) MIC testing is conducted using the broth (Mueller Hinton Broth) microdilution procedures relevant to each organism group as established by the Clinical and Laboratory Standards Institute (CLSI; 3-7). MIC plates are prepared in accordance with CLSI (3-7). To prepare the test plates, automated liquid handlers are used to conduct serial dilutions and liquid transfers. Automated liquid handlers utilized in this study include the Multidrop 384 (Labsystems, Helsinki, Finland) and the Biomek 2000 (Beckman Coulter, Fullerton CA). The solution is diluted to desired pH using 1 M Citric Acid or 1 M NaOH buffer. A standardized inoculum of each test organism is prepared per CLSI methods (3, 5-7) to equal a 0.5 McFarland standard in the appropriate media followed by an additional 1:20 dilution (1:10 for anaerobes).
(§2) The plates are then inoculated with 10 μL of the diluted 0.5 McFarland suspension using the Biomek 2000 from low to high drug concentration, resulting in a final concentration of approximately 5×10^5 CFU/mL per well. An un-inoculated plate is incubated for the purpose of assessing solubility of the drug in the test media. The plates are stacked 3 to 4 high, covered with a sterile lid on the top plate, and incubated for 18 to 24 hours according to CLSI. The MIC is recorded as the lowest concentration of respective compound that inhibited visible growth of the organism.
(In general: Dilution methods test growth across graded concentrations, often in twofold steps.)

Experiment [2] concerns Staphylococcus aureus (43330). Description: MIC, broth microdilution, Staphylococcus aureus (43330). How it is done: as §1, §2
Experiment [3] has as its system Pseudomonas aeruginosa (27853). In words: MIC, broth microdilution, Pseudomonas aeruginosa (27853). How it is done: as §1, §2
Experiment [4] has as its system Escherichia coli (25922). Description: MIC, broth microdilution, Escherichia coli (25922). The method, then: as §1, §2

As a reminder, the MIC is the lowest concentration that inhibits growth of the organism. In the case of `CCCCCCOP(=O)(O)OC[C@H]1O[C@@H](n2ccc(N)nc2=O)C[C@@H]1O` [LAI-002, ((2R,3S,5R)-5-(4-amino-2-oxopyrimidin-1(2H)-yl)-3-hydroxytetrahydrofuran-2-yl)methyl hexyl hydrogen phosphate], the MIC was 50 mg/mL in experiment [1] (read-out: MIC), 25 mg/mL in experiment [2] (read-out: MIC), 5 mg/mL in experiment [3] (read-out: MIC) and 25 mg/mL in experiment [4] (read-out: MIC).
With `CC(C)CCOP(=O)(O)OC[C@H]1O[C@@H](n2ccc(N)nc2=O)C[C@@H]1O` [LAI-004, ((2R,3S,5R)-5-(4-amino-2-oxopyrimidin-1(2H)-yl)-3-hydroxytetrahydrofuran-2-yl)methyl isopentyl hydrogen phosphate], the MIC in experiment [1] (read-out: MIC) was found to be 50 mg/mL; in experiment [2] (read-out: MIC), 50 mg/mL; in experiment [3] (read-out: MIC), 5 mg/mL; in experiment [4] (read-out: MIC), 25 mg/mL.
On to `CCCCCCCCOP(=O)(O)OC[C@H]1O[C@@H](n2ccc(N)nc2=O)C[C@@H]1O` [LAI-001, ((2R,3S,5R)-5-(4-amino-2-oxopyrimidin-1(2H)-yl)-3-hydroxytetrahydrofuran-2-yl)methyl octyl hydrogen phosphate], for which the MIC in experiment [1] (read-out: MIC), in experiment [2] (read-out: MIC), in experiment [3] (read-out: MIC) and in experiment [4] (read-out: MIC) was 20 mg/mL each time.
On to `Nc1ccn([C@H]2C[C@H](O)[C@@H](COP(=O)(O)OCCCC(F)(F)F)O2)c(=O)n1` [LAI-005, ((2R,3S,5R)-5-(4-amino-2-oxopyrimidin-1(2H)-yl)-3-hydroxytetrahydrofuran-2-yl)methyl (4,4,4-trifluorobutyl) hydrogen phosphate], for which the MIC in experiment [2] (read-out: MIC) was determined as 50 mg/mL; in experiment [3] (read-out: MIC) it was 25 mg/mL; in experiment [4] (read-out: MIC) it was 25 mg/mL.
On to “(2R,3S,5R)-5-(4-amino-2-oxopyridizin-1(2H)-yl)-3-hydroxytetrahydrofuran-2-methyl butyl phosphate [LAI-011]”, for which the MIC is 5 mg/mL in experiment [1], 25 mg/mL in experiment [2], 5 mg/mL in experiment [3] and 25 mg/mL in experiment [4].
Regarding `CCCCOP(=O)(O)OC[C@H]1O[C@@H](n2ccc(NC)nc2=O)C[C@@H]1O` [LAI-009, butyl (((2R,3S,5R)-3-hydroxy-5-(4-(N-methylamino)-2-oxopyrimidin-1(2H)-yl)tetrahydrofuran-2-yl)methyl) hydrogen phosphate], the MIC in experiment [1] (read-out: MIC) amounted to 50 mg/mL; in experiment [2] (read-out: MIC) it was 25 mg/mL; in experiment [3] (read-out: MIC) it was 5 mg/mL; in experiment [4] (read-out: MIC) it was 25 mg/mL.
`CC(C)COP(=O)(O)OC[C@H]1O[C@@H](n2ccc(N)nc2=O)C[C@@H]1O` [LAI-003, ((2R,3S,5R)-5-(4-amino-2-oxopyrimidin-1(2H)-yl)-3-hydroxytetrahydrofuran-2-yl)methyl isobutyl hydrogen phosphate]: the MIC in experiment [1] (read-out: MIC), in experiment [2] (read-out: MIC), in experiment [3] (read-out: MIC) and in experiment [4] (read-out: MIC) was 20 mg/mL throughout.

(Values after patent US20260297118A1, “SUBSTITUTED PYRIMIDINONE AND AZAPYRIMIDINONE COMPOUNDS, COMPOSITIONS, AND USES THEREOF” (LAKEWOOD AMEDEX, INC., priority 2023, published 2026).)
